Laboratory results published in article PMC8012331, “Drug-induced hepatic steatosis in absence of severe mitochondrial dysfunction in HepaRG cells: proof of multiple mechanism-based toxicity” (Cell Biology and Toxicology, 2020).
Several values for one entry are separate records, joined by “and”; a condition that tells them apart may be missing. Identical values can stand only once.

Experiments:
[1] = Maximum plasma concentration (Cmax) in patients; type: in vivo, human; details: worked out from cited Cmax in patients
[2] = treated patients; ref Schulz M et al., Crit Care 2012 ;16(4):R136; listed as Sulindac (SUL); cited from earlier work
ERN1 (IRE1α) = assay: RT-qPCR ERN1 mRNA in HepaRG cells; type: cell-based, human; details: 4 days, vs control
Description: (§1) Total RNA was extracted with the Nucleospin RNA isolation system purchased from Macherey-Nagel (Düren, Germany), which included a DNase treatment step. Quantification of isolated RNAs was assessed using a Nanodrop 1000 (Thermo Fisher Scientific, Waltham, MA). RNAs were reverse-transcribed into cDNAs using the High-Capacity cDNA Reverse Transcription Kit purchased from Applied Biosystems (Woolston, UK). Gene expression was assessed by real-time quantitative PCR analysis (RT-qPCR) using SYBR Green PCR Master Mix (Applied Biosystems) and a 384-well QuantStudio™ 7 Flex Real-Time PCR System (Thermo Fisher Scientific). Sequences of the primers used to measure gene expression are presented in Supplementary Table 3. Expression of GAPDH was chosen as reference and the 2^−ΔΔCt calculation method was used to express the relative expression of each selected gene.

[3] = test system: de novo lipogenesis (DNL); assay: DNL from [2-14C]acetic acid in HepaRG cells; type: cell-based, human; details: 4 days, vs control
Description: (§2) Experiments were carried out on passages 9 to 16. […] DPEN was dissolved in water.
DNL was assessed by measuring newly synthesized radiolabeled lipids from [2-^14C]acetic acid, using a protocol adapted from Byrne et al. ([2014]). Briefly, culture medium was removed and cells were washed with warm PBS. Next, cells were incubated for 3 h with phenol red-free William’s E medium containing 1% fatty acid-free BSA, [2-^14C]acetic acid (1850 Bq per well, corresponding to 19.4 pM) and 50 μM cold acetic acid. Medium was then gently removed and cells were washed with warm PBS before adding a mix of hexane/isopropanol (3:2; v/v). Cell culture plates were sealed and incubated for 1 h at room temperature for lipid extraction. After transfer of the plate content in 200-μL microtubes, hexane and PBS were added to have a hexane/isopropanol/PBS ratio of 6:2:3 (v/v/v). Microtubes were then centrifuged at 1000×g for 5 min and radiolabeled lipids were counted in the upper phase with a Tri-Carb 4910TR liquid scintillation counter (PerkinElmer). Results were normalized to total protein content and expressed in comparison to control cells.

apoC3 secretion = assay: apoC3 level in culture medium (HTRF), HepaRG cells; type: cell-based, human; details: 4 days, culture medium, vs control
Description: (§3) Briefly, HepaRG cells were seeded in 96-well plates at a density of 2.6 × 10^4 cells/cm^2 and were first incubated in William’s E medium supplemented with 10% FBS (50% FBS from Eurobio and 50% FBS from GE Healthcare), 100 U/mL penicillin, 100 μg/mL streptomycin, 2 mM glutamine, 5 μg/mL insulin, and 50 μM hydrocortisone hemisuccinate. […] During this 1-month period, the culture medium was renewed three times a week. […] HepaRG cells were next cultured in the same FBS/DMSO conditions and incubated for 4 days with each drug at different concentrations. Culture medium was renewed every day and all investigations were performed after 96 h (i.e., 24 h after the fourth treatment). These investigations were mostly performed in 96-well plates except for western blot analysis, for which 6-well plates were used. Experiments were carried out on passages 9 to 16. All drugs (except DPEN), etomoxir, lomitapide, tunicamycin, thapsigargin, and TUDCA were dissolved in DMSO. DPEN was dissolved in water.
Apolipoprotein C3 (apoC3) level was measured using the Human Apolipoprotein C3 kit from Cisbio Bioassays (Codolet, France), according to the manufacturer’s instructions. Briefly, 10 μL of supernatants was incubated with two different specific anti-human apoC3 antibodies, one donor and one acceptor. The detection principle of apoC3 is based on HTRF® (Homogeneous Time Resolved Fluorescence), a time-resolved FRET (Förster Resonance Energy Transfer) technology. After 2 h of incubation, light emission was measured with the Infinite F Nano+ microplate reader (Tecan, Männedorf, Switzerland). ApoC3 level was calculated utilizing standard curve, based on the ratio of A665 nm/A615 nm, and normalized to the total cellular protein content. Results were expressed in comparison to control cells.

ATP citrate lyase (ACLY) = assay: RT-qPCR ACLY mRNA in HepaRG cells; type: cell-based, human; details: 4 days, vs control
Description: as §1

[4] = test system: acetyl-CoA carboxylase alpha (ACACA); assay: RT-qPCR ACACA mRNA in HepaRG cells; type: cell-based, human; details: 4 days, vs control
Description: as §1

HepaRG cells [5] = assay: Cellular ATP level (CellTiter-Glo) in HepaRG cells; type: cell-based, human; details: 4 days, vs controls
Description: Cellular ATP level was measured using the CellTiter-Glo® Luminescent Cell Viability assay purchased from Promega (Charbonnières, France), according to the manufacturer’s instructions. Briefly, control and treated HepaRG cells were first washed with warm PBS and kept for 30 min at room temperature in phenol red-free William’s E medium. Cells were next incubated with the CellTiter-Glo® reagent for 10 min at room temperature. Cells were then transferred in opaque-walled multiwell plates and the luminescent signal was quantified using a POLARstar Omega microplate reader (BMG Labtech, Ortenberg, Germany). Results were expressed in comparison to control cells.

HepaRG cells [6] = assay: Neutral lipids with Nile red in HepaRG cells; details: 4 days; for Accumulation of neutral lipids (steatosis): selected concentrations (ATP loss < 30%, not above 100 × Cmax), vs control
Description: as §3
Cells were then incubated with PBS containing 0.1 μg/mL Nile red for 30 min and washed once. […] For each well, four pictures were taken at a magnification of × 20 and analyzed with Columbus software (PerkinElmer) for quantification. These pictures were always taken in four different areas around the center of each well, and these areas were the same from one well to another, as programmed by the Columbus software. This software was also designed to count only living cells after exclusion of dying cells harboring nuclei with abnormal shape or altered Hoechst intensity. […] Neutral lipids were then normalized per number of nuclei and expressed relative to control cells. Examples of images used for neutral lipid quantification are shown in Supplementary Fig. 2.

[7] = test system: fatty acid synthase (FASN); assay: RT-qPCR FASN mRNA in HepaRG cells; type: cell-based, human; details: 4 days, vs control
Description: as §1

[8] = patients, ref given per drug, cited from earlier work
apoB secretion = assay: apoB level in culture medium (ELISA), HepaRG cells; type: cell-based, human; details: 4 days; for Effect on apoB secretion: culture medium, vs control
Description: as §2
Twenty-four hours after the last treatment, cell supernatants were removed and stored at − 80 °C until use for apolipoprotein measurement. ApoB level was measured using the Human Apolipoprotein B ELISA^pro kit from Mabtech (Nacka Strand, Sweden), according to the manufacturer’s instructions. Briefly, 50 μL of samples were diluted 2× in Apo ELISA buffer before a 2-h incubation in the precoated strip plates provided in the kit. The plates were washed and incubated 1 h with the biotinylated monoclonal anti-human apoB (LDL-11-biotin) antibody. The plates were then washed and incubated 1 h with a streptavidin–horseradish peroxidase conjugated antibody. After another washing, 3,3′,5,5′-tetramethylbenzidine (TMB) was used as substrate for 15 min before adding a stop solution. Absorbance at 450 nm was then measured using a POLARstar Omega microplate reader (BMG Labtech, Ortenberg). ApoB level was calculated utilizing a four-parameter standard curve, and normalized to the total cellular protein content and expressed in comparison to control cells.

apolipoprotein B (APOB) = assay: RT-qPCR APOB mRNA in HepaRG cells; type: cell-based, human; details: 4 days
Description: as §1

HepaRG cells [9] = assay: Number of nuclei (Hoechst 33342) in HepaRG cells; type: cell-based, human; details: HepaRG cells treated with TUDCA alone
[10] = test system: prolyl 4-hydroxylase subunit beta (P4HB, also known as PDI); assay: RT-qPCR P4HB mRNA in HepaRG cells; type: cell-based, human; details: 4 days, vs control
Description: as §1

DDIT3 (CHOP) = assay: RT-qPCR DDIT3 mRNA in HepaRG cells; type: cell-based, human; details: 4 days, vs control
Description: as §1

[11] = test system: apolipoprotein C3 (APOC3); assay: RT-qPCR APOC3 mRNA in HepaRG cells; type: cell-based, human; details: 4 days, vs control
Description: as §1

[12] = test system: microsomal triglyceride transfer protein (MTTP); assay: RT-qPCR MTTP mRNA in HepaRG cells; type: cell-based, human; details: 4 days, vs control
Description: as §1

HSPA5 (BIP) = assay: RT-qPCR HSPA5 mRNA in HepaRG cells; type: cell-based, human; details: 4 days, vs control
Description: as §1

[13] = test system: mitochondrial fatty acid oxidation (mtFAO); assay: mtFAO with [U-14C]palmitic acid in HepaRG cells; type: cell-based, human; details: 4 days, vs control
Description: as §2
Results were normalized to total protein content determined using the Pierce BCA assay kit from Thermo Fischer Scientific (Waltham, MA). Results were expressed in comparison to control cells.

[14] = test system: angiopoietin-like 3 (ANGPTL3); assay: RT-qPCR ANGPTL3 mRNA in HepaRG cells; type: cell-based, human; details: 4 days, vs control
Description: as §1

[15] = TUDCA 2 or 4 mM with 750 μM ALLO, 300 μM INDO, 300 μM RIF or 10 μM tunicamycin

Row | Molecule | ERN1 (IRE1α) mRNA level (ERN1 (IRE1α)) | Effect on DNL [3] | Accumulation of neutral lipids (steatosis) (HepaRG cells [6]) | Effect on apoB secretion (apoB secretion) | P4HB (PDI) mRNA level [10] | DDIT3 (CHOP) mRNA level (DDIT3 (CHOP)) | APOC3 mRNA level [11] | MTTP mRNA level [12] | HSPA5 (BIP) mRNA level (HSPA5 (BIP)) | Effect on mtFAO [13] | ANGPTL3 mRNA level [14] | further results
1 | CC1=C(CC(=O)O)c2cc(F)ccc2/C1=C\c1ccc([S+](C)[O-])cc1 (stereo not drawn) [SUL, sulindac] | enhanced IRE1α mRNA level | increased DNL | significant accumulation of neutral lipids | reduced the secretion |  |  |  |  |  |  |  | Concentration corresponding to 100xCmax [1]: 3200 µM; Therapeutic blood (or plasma) concentration in patients [2]: 1 - 5 mg/L and 2.8 - 14 µM; Effect on apoC3 secretion (apoC3 secretion): reduced the secretion; ACLY mRNA level (ATP citrate lyase (ACLY)): augmented mRNA abundance; ACACA mRNA level [4]: augmented mRNA abundance; Loss of cellular ATP relative to the maximum concentration selected for the study (HepaRG cells [5]): 1000 µM (loss of cellular ATP above 30% of the controls for higher concentrations, as shown in Supp. fig 1); FASN mRNA level [7]: augmented mRNA abundance; Maximum plasma concentration (Cmax) in patients [8]: ≤ 11400 ng/mL; Cmax ([8]; read-out: Maximum plasma concentration (Cmax) in patients): ≤ 32 µM
2 | C[C@H](CCC(=O)NCCS(=O)(=O)O)[C@H]1CC[C@H]2[C@@H]3[C@@H](O)C[C@@H]4C[C@H](O)CC[C@]4(C)[C@H]3CC[C@]12C [TUDCA, tauroursodeoxycholic acid] |  |  |  |  |  |  |  |  |  |  |  | Effect on APOB mRNA level in cells cotreated with ALLO, INDO, RIF or tunicamycin (apolipoprotein B (APOB); [15]): higher apoB mRNA level; Increase in the number of nuclei (HepaRG cells [9]): 38%; Effect on neutral lipid accumulation induced by ALLO, INDO, RIF or tunicamycin (HepaRG cells [6]; [15]): alleviate neutral lipid accumulation; Effect on apoB secretion in cells cotreated with ALLO, INDO, RIF or tunicamycin (apoB secretion; [15]): improved apoB secretion
3 | C/C=C(/C)C(=O)O[C@H]1C(C)=C2[C@H]([C@@H]1OC(=O)CCCCCCC)[C@@](C)(OC(C)=O)C[C@H](OC(=O)CCC)[C@@]1(O)[C@H]2OC(=O)[C@@]1(C)O [thapsigargin] | augmented the mRNA level | strongly reduced DNL |  | reduced secretion of apoB | induced | augmented the mRNA level | reduced the mRNA level | reduced the mRNA level | augmented the mRNA level | increased mtFAO | reduced the mRNA level | APOB mRNA level (apolipoprotein B (APOB); vs control): also reduced APOB mRNA abundance
4 | tunicamycin | augmented the mRNA level | strongly reduced DNL | increased neutral lipids | reduced secretion of apoB | induced | augmented the mRNA level | reduced the mRNA level | reduced the mRNA level | augmented the mRNA level | increased mtFAO | reduced the mRNA level | 
